Here are results for 24 compounds from ChEMBL document CHEMBL1201862, “PubChem BioAssay data set” (2004).

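In this assay, cells in 96-well plates receive the compound at five concentrations for 48 hours. Endpoints are linearly interpolated between the surrounding concentrations. GI50 is the concentration that inhibits growth by half.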 Calls of active or inactive are those of the source. Rule as the data show it: active = GI50 up to about 1.1 µM and inactive = higher. Bounds are passed on as bounds.

Assay in all cases: DTP human tumour cell line panel, 48 h
The test system of assay [1] is SNB-78.
In assay [2] the test system is RXF 631.
Assay [3] deals with DMS-273.
Assay [4] has as its system M19-MEL.
Assay [5] concerns DLD-1.
The subject of assay [6] is LXFL 529.
Assay [7] relates to XF498.
The subject of assay [8] is DMS-114.
Assay [9] deals with HOP-18.

One may read the GI50 as the concentration giving 50% growth inhibition. Consider `[O-]c1c2c(nn1-c1ccccc1)c1ccccc1c[n+]2Cc1ccccc1`, for which the GI50 in assay [1], in [2], in assay [3], in assay [4], in assay [5] and in assay [6] was > 100 µM (inactive) each time. Besides, the GI50 in [7], in [8] and in [9] was > 100 µM (inactive) each time.

For the compound `C[N+](C)(C)CC1CCCCC1=O` (stereo not given), the GI50 in [3] was 71.3 µM (inactive); in assay [4], 18.5 µM (inactive); in assay [5] it was 19.8 µM (inactive); in [8], 36.9 µM (inactive); in assay [9], 16.3 µM (inactive).

On to `C[N+]1(CCNP(=S)(NCC[N+]2(C)Cc3c(ccc4c3OCO4)C3C2c2cc4c(cc2C[C@@H]3O)OCO4)NCC[N+]2(C)Cc3c(ccc4c3OCO4)C3C2c2cc4c(cc2C[C@@H]3O)OCO4)Cc2c(ccc3c2OCO3)C2C1c1cc3c(cc1C[C@H]2O)OCO3` (stereo not given in full), for which the GI50 in assay [1], in [3], in assay [4], in assay [5], in assay [6] and in assay [7] was < 0.00191 µM (active) throughout. Moreover, the 50% growth inhibitory concentration (GI50) in assay [9] is < 0.00191 µM (active).

`c1ccc(OC2=NC3=S(S2)SC(Oc2ccccc2)=N3)cc1`: the GI50 in assay [1] is 20.5 µM (inactive); in [2], 25.1 µM (inactive); in assay [3], 25.8 µM (inactive); in assay [4] it was 17.8 µM (inactive); in assay [5], 16.5 µM (inactive); in assay [7] it was 15.7 µM (inactive). Besides, the GI50 in assay [8] was 19.9 µM (inactive).

For the compound `CC(=O)Nc1ccc(C(=O)NN2C(=O)C(Cl)C2c2ccccc2)cc1` (stereo not given), the GI50 in assay [1], in assay [3], in assay [4], in [5] and in assay [6] was > 100 µM (inactive) each time.

In the case of `CC(N)Cc1cccc(C(F)(F)F)c1` (stereo not given), the GI50 in [1], in [2], in [3], in [4], in assay [5] and in assay [6] was > 100 µM (inactive) in each case. Besides, the GI50 in assay [8] and in assay [9] was > 100 µM (inactive) in each case.

Turning to `CN(C)CCNC(=O)c1cccc2c(Nc3ccc(S(N)(=O)=O)cc3)c3ccccc3nc12`, the GI50 in assay [1] is 1.82 µM (inactive); in [2], 1.4 µM (inactive); in assay [3], 0.783 µM (active); in [5], 1.72 µM (inactive); in assay [6] it was 0.333 µM (active); in [7] it was 0.209 µM (active). For the same compound, the figures for the GI50 in assay [8] and in assay [9] were 0.461 µM (active) and 2.71 µM (inactive), respectively.

With `COc1ccc(C(=O)O/N=C2\CCCC\C2=C/c2ccccc2)cc1`, the GI50 in assay [1] was 34 µM (inactive); in assay [2], > 100 µM (inactive); in [3] it was > 100 µM (inactive); in assay [4] it was > 100 µM (inactive); in assay [5], > 100 µM (inactive); in assay [6] it was > 100 µM (inactive). Also, the GI50 is 35.5 µM (inactive) in [7], 80.7 µM (inactive) in assay [8] and 51.5 µM (inactive) in [9].

In the case of `COc1ccc(CNc2nc3ccc(C(F)(F)F)cc3nc2-c2ccccc2)cc1OC`, the GI50 was > 100 µM (inactive) in assay [1]; 16.7 µM (inactive) in assay [2]; 35.1 µM (inactive) in assay [3]; > 100 µM (inactive) in assay [4]; 43.4 µM (inactive) in [6]; 13.2 µM (inactive) in assay [7]. The GI50 in assay [9] is > 100 µM (inactive).

With `CC#COP(=O)(OCC)OCC`, the GI50 in assay [1], in assay [2], in [4], in assay [5], in assay [6] and in assay [8] was > 100 µM (inactive) each time.

As for `C[C@@]12[Se]c3ccccc3[C@]1(C)[Se]c1ccccc12`, the GI50 in assay [3] was 3.61 µM (inactive); in assay [4], 5.68 µM (inactive); in [5], > 100 µM (inactive); in [6], > 100 µM (inactive); in assay [8], 2.12 µM (inactive); in assay [9] it was > 100 µM (inactive).

In the case of `CCC(C)(O)c1cn(-c2ccc(S(=O)(=O)O)cc2)nn1` (stereo not given), the GI50 in assay [1], in [2], in [3], in assay [4], in [5] and in assay [6] was > 100 µM (inactive) in each case. The GI50 in assay [7], in [8] and in [9] was > 100 µM (inactive) throughout.

With `COc1ccc(C[C@@H]2NC[C@@H](O)[C@@H]2OC(C)=O)cc1`, the 50% growth inhibitory concentration (GI50) was 0.634 µM (active) in [3]; 1.79 µM (inactive) in assay [4]; 1.77 µM (inactive) in assay [5]; 1.32 µM (inactive) in assay [6]; 1.45 µM (inactive) in [8]; 1.73 µM (inactive) in [9].

Turning to `Cn1c2ccccc2c2cc(-c3ccccc3)c3c(c21)C(=O)C=CC3=O`, the GI50 is > 42.1 µM (inactive) in [1]; 30.3 µM (inactive) in [2]; 19.7 µM (inactive) in assay [3]; 20.1 µM (inactive) in assay [4]; 13.6 µM (inactive) in assay [5]; 6.68 µM (inactive) in assay [6]. Besides, the results for the GI50 in [7] and in [8] were 17.8 µM (inactive) and 9.38 µM (inactive), respectively.

In the case of `COc1ccc2c(c1)Cc1c-2[nH]c2cc3c(cc2c1=O)OCO3`, the GI50 in [1] is 8.83 µM (inactive); in assay [3], 7.67 µM (inactive); in assay [4], 15.7 µM (inactive); in assay [5], 13.9 µM (inactive); in [6], 19.5 µM (inactive); in assay [7] it was 15 µM (inactive). For the same compound, the GI50 in assay [8] was 4.07 µM (inactive); in assay [9], 17.5 µM (inactive).

For the compound `CCCCCCCCCCCCCCCCCC(CCCCCCCCCCCCCCCCC)OP(=O)(O)O`, the GI50 in assay [1], in [3], in assay [4], in assay [6], in assay [8] and in assay [9] was > 100 µM (inactive) each time.

For `Cc1ccc(NC(=O)C(=O)C(C2C(C)CC(=O)C2CC(=O)O)[N+](=O)[O-])cc1` (stereo not given), the GI50 in assay [1], in assay [5], in assay [6], in [7] and in [8] was > 100 µM (inactive) each time.

Turning to `O=C1C(Cl)C(c2cccc([N+](=O)[O-])c2)N1n1cnc2ccccc2c1=O` (stereo not given), the GI50 in [3] was > 100 µM (inactive); in [4] it was > 100 µM (inactive); in [5] it was > 100 µM (inactive); in assay [6], 92.3 µM (inactive); in assay [8] it was 86.9 µM (inactive); in [9], 11 µM (inactive).

Take `C#CCNC(=O)NCCCC(NC(C)=O)C(=O)NCc1ccccc1` (stereo not given): the GI50 in assay [1], in assay [2], in assay [4], in assay [5], in assay [6] and in [8] was > 100 µM (inactive) throughout. Also, the GI50 in [9] is > 100 µM (inactive).

`CCCC(=O)Nc1ccc(O)c2c1C1CCCCCC21` (stereo not given): the GI50 was > 100 µM (inactive) in assay [1]; > 100 µM (inactive) in [3]; > 100 µM (inactive) in assay [4]; > 100 µM (inactive) in [6]; 65 µM (inactive) in [7]; 50.2 µM (inactive) in [8]. Also, the GI50 in assay [9] is > 100 µM (inactive).

Consider `CC(O)CCCOC(c1ccccc1)(c1ccccc1)c1ccccc1` (stereo not given), for which the GI50 in assay [1] was 14.7 µM (inactive); in assay [4], 17 µM (inactive); in assay [5], 17.2 µM (inactive); in [6], 14.7 µM (inactive); in assay [7] it was 14.7 µM (inactive); in assay [8], 13.2 µM (inactive).

Take `CN1CCN(c2nc(N)c(Br)c(Cl)n2)CC1`: the GI50 in [1], in assay [3], in assay [4], in assay [5], in assay [6] and in assay [7] was > 100 µM (inactive) in each case. Besides, the GI50 in [8] was > 100 µM (inactive).

For the compound `COc1cc2c(c(OC)c1OC)-c1ccc(SC)c(=O)cc1[C@@H](NCc1ccc(F)cc1)CC2`, the GI50 in assay [1], in [2], in [3], in assay [5], in assay [6] and in assay [7] was < 0.0075 µM (active) throughout. For the same compound, the GI50 in assay [9] is 9.1 µM (inactive).

As for `C=C(C)C(O)CCC1(C)C=Cc2c(c(C)cc3c2[nH]c2ccccc23)O1` (stereo not given), the GI50 in [1] is 8.77 µM (inactive); in assay [4], 13.2 µM (inactive); in assay [5], 7.28 µM (inactive); in [6], 8.05 µM (inactive); in [7], 6.67 µM (inactive); in [8], 11.6 µM (inactive).
